In patent US20230295200A1 (REGENTS OF THE UNIVERSITY OF MICHIGAN, priority 2022, published 2023):

How the values were obtained:
[1] = target: T1, STAT6 protein (Homo sapiens, UniProt P42226); experiment: Fluorescence polarization (FP) binding assay, STAT6; conditions: FP competition, 5 nM fluorescein-labeled tracer, 200 nM protein, PBS pH7.4; read-out: Binding STAT6
T1 sequence (P42226 1-847): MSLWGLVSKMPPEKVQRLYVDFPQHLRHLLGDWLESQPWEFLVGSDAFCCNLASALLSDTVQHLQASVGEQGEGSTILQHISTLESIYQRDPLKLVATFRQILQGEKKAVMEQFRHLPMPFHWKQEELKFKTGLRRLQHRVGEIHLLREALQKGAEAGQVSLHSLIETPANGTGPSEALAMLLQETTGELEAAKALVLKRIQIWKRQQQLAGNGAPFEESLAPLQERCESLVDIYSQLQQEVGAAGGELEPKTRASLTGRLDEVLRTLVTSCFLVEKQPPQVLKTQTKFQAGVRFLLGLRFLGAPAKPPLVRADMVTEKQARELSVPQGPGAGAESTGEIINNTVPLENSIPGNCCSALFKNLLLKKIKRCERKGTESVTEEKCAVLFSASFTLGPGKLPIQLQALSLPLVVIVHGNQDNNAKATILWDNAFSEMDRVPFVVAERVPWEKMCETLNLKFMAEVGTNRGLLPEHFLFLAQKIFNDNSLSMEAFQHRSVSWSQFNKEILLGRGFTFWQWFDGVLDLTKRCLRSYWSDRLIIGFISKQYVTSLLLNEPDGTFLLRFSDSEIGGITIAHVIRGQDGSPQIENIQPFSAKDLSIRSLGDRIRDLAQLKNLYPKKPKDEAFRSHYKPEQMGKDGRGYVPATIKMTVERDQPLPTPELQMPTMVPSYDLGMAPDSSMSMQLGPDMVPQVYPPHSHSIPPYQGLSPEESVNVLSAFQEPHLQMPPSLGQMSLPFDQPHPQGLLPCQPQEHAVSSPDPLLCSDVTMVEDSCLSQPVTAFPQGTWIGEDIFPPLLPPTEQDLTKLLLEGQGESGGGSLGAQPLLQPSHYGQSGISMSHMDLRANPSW
Procedure, shortened: (§1)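 5 nM fluorescein tracer + 200 nM STAT protein; PBS pH 7.4, 0.01% BGG, 0.01% Tween-20, 2 mM DTT; shake 15 min, 1 h RT equilibrium; FP read; nonlinear fit for inhibition constants.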

[2] = target: T2, STAT5A (Homo sapiens, UniProt P42229); experiment: Fluorescence polarization (FP) binding assay, STAT5A; conditions: FP competition, 5 nM fluorescein-labeled tracer, 200 nM protein, PBS pH7.4
T2 sequence (P42229 1-794): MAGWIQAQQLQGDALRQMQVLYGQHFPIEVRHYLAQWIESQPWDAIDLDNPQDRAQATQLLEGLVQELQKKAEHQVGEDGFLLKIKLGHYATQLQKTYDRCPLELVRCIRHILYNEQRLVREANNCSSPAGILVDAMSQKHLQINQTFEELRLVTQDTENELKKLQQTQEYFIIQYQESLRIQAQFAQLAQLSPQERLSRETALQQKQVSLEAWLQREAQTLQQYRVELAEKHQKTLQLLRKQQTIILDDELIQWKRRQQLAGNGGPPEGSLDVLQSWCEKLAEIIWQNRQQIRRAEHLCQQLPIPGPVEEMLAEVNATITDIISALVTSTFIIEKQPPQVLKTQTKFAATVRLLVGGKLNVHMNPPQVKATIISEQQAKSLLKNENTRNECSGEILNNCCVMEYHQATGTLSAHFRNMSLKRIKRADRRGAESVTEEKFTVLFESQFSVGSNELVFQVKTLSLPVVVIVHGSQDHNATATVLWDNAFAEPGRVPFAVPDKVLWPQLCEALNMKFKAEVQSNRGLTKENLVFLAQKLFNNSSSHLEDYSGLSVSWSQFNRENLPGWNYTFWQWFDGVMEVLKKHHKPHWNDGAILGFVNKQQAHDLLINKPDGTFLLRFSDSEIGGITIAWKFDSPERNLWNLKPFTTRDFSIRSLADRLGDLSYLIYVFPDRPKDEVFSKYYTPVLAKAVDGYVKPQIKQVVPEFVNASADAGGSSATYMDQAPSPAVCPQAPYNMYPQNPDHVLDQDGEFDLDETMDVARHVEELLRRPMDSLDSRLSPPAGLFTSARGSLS
Procedure, shortened: as §1

CC(C)(C)[C@H](NC(=O)c1cc2cc(C(F)(F)P(=O)(O)O)ccc2s1)C(=O)N1Cc2ccccc2[C@H]1C(=O)Nc1ncc(-c2ccccc2)s1 [Compound 200, ((2-(((S)-3,3-dimethyl-1-oxo-1-((S)-1-((5-phenylthiazol-2-yl)carbamoyl)isoindolin-2-yl)butan-2-yl)carbamoyl)benzo[b]thiophen-5-yl)difluoromethyl)phosphonic acid]
Ki [1]: 1000 to 10000 nM | Ki [2]: 100 to 1000 nM

CC(C)(C)[C@H](NC(=O)c1cc2cc(C(F)(F)P(=O)(O)O)ccc2s1)C(=O)N1CCN(C(=O)OCc2ccccc2)C[C@H]1C(=O)Nc1ncc(-c2ccccc2)s1 [Compound 201, ((2-(((S)-1-((S)-4-((benzyloxy)carbonyl)-2-((5-phenylthiazol-2-yl)carbamoyl)piperazin-1-yl)-3,3-dimethyl-1-oxobutan-2-yl)carbamoyl)benzo[b]thiophen-5-yl)difluoromethyl)phosphonic acid]
Ki [1]: 1000 to 10000 nM | Ki [2]: 100 to 1000 nM

CC(C)(C)[C@H](NC(=O)c1cc2cc(C(F)(F)P(=O)(O)O)ccc2s1)C(=O)N1C[C@H](OCc2ccccc2)C[C@H]1C(=O)N1Cc2ccccc2C1 [Compound 202, ((2-(((S)-1-((2S,4R)-4-(benzyloxy)-2-(isoindoline-2-carbonyl)pyrrolidin-1-yl)-3,3-dimethyl-1-oxobutan-2-yl)carbamoyl)benzo[b]thiophen-5-yl)difluoromethyl)phosphonic acid]
Ki [1]: 1000 to 10000 nM | Ki [2]: 1000 to 10000 nM

CC(C)(C)[C@H](NC(=O)c1cc2cc(C(F)(F)P(=O)(O)O)ccc2s1)C(=O)N1C[C@H](OCc2ccccc2)C[C@H]1C(=O)Nc1ncc(-c2ccccc2)s1 [Compound 203, ((2-(((S)-1-((2S,4R)-4-(benzyloxy)-2-((5-phenylthiazol-2-yl)carbamoyl)pyrrolidin-1-yl)-3,3-dimethyl-1-oxobutan-2-yl)carbamoyl)benzo[b]thiophen-5-yl)difluoromethyl)phosphonic acid]
Ki [1]: 1000 to 10000 nM | Ki [2]: 100 to 1000 nM

CCOC(=O)CO[C@H]1C[C@@H](C(=O)Nc2ncc(-c3ccccc3)s2)N(C(=O)[C@@H](NC(=O)c2cc3cc(C(F)(F)P(=O)(O)O)ccc3s2)C(C)(C)C)C1 [Compound 205, ((2-(((S)-1-((2S,4S)-4-(2-ethoxy-2-oxoethoxy)-2-((5-phenylthiazol-2-yl)carbamoyl)pyrrolidin-1-yl)-3,3-dimethyl-1-oxobutan-2-yl)carbamoyl)benzo[b]thiophen-5-yl)difluoromethyl)phosphonic acid]
Ki [1]: 1000 to 10000 nM | Ki [2]: 1000 to 10000 nM

CCOC(=O)CO[C@@H]1C[C@@H](C(=O)Nc2ncc(-c3ccccc3)s2)N(C(=O)[C@@H](NC(=O)c2cc3cc(C(F)(F)P(=O)(O)O)ccc3s2)C(C)(C)C)C1 [Compound 206, ((2-(((S)-1-((2S,4R)-4-(2-ethoxy-2-oxoethoxy)-2-((5-phenylthiazol-2-yl)carbamoyl)pyrrolidin-1-yl)-3,3-dimethyl-1-oxobutan-2-yl)carbamoyl)benzo[b]thiophen-5-yl)difluoromethyl)phosphonic acid]
Ki [1]: 1000 to 10000 nM | Ki [2]: 100 to 1000 nM

CC(C)(C)[C@H](NC(=O)c1cc2cc(C(F)(F)P(=O)(O)O)ccc2s1)C(=O)N1C[C@@H](Oc2ccccc2)C[C@H]1C(=O)Nc1ncc(-c2ccccc2)s1 [Compound 207, ((2-(((S)-3,3-dimethyl-1-oxo-1-((2S,4S)-4-phenoxy-2-((5-phenylthiazol-2-yl)carbamoyl)pyrrolidin-1-yl)butan-2-yl)carbamoyl)benzo[b]thiophen-5-yl)difluoromethyl)phosphonic acid]
Ki [1]: 1000 to 10000 nM | Ki [2]: 1000 to 10000 nM

CC(C)(C)[C@H](NC(=O)c1cc2cc(C(F)(F)P(=O)(O)O)ccc2s1)C(=O)N1C[C@H](Oc2ccccc2)C[C@H]1C(=O)Nc1ncc(-c2ccccc2)s1 [Compound 208, ((2-(((S)-3,3-dimethyl-1-oxo-1-((2S,4R)-4-phenoxy-2-((5-phenylthiazol-2-yl)carbamoyl)pyrrolidin-1-yl)butan-2-yl)carbamoyl)benzo[b]thiophen-5-yl)difluoromethyl)phosphonic acid]
Ki [1]: 1000 to 10000 nM | Ki [2]: 100 to 1000 nM

CC(C)(C)[C@H](NC(=O)c1cc2cc(C(F)(F)P(=O)(O)O)ccc2s1)C(=O)N1C[C@@H](Oc2ccc3ccccc3c2)C[C@H]1C(=O)Nc1ncc(-c2ccccc2)s1 [Compound 209, ((2-(((S)-3,3-dimethyl-1-((2S,4S)-4-(naphthalen-2-yloxy)-2-((5-phenylthiazol-2-yl)carbamoyl)pyrrolidin-1-yl)-1-oxobutan-2-yl)carbamoyl)benzo[b]thiophen-5-yl)difluoromethyl)phosphonic acid]
Ki [1]: 1000 to 10000 nM | Ki [2]: > 10000 nM

CC(C)(C)[C@H](NC(=O)c1cc2cc(C(F)(F)P(=O)(O)O)ccc2s1)C(=O)N1C[C@H](Oc2ccc3ccccc3c2)C[C@H]1C(=O)Nc1ncc(-c2ccccc2)s1 [Compound 210, ((2-(((S)-3,3-dimethyl-1-((2S,4R)-4-(naphthalen-2-yloxy)-2-((5-phenylthiazol-2-yl)carbamoyl)pyrrolidin-1-yl)-1-oxobutan-2-yl)carbamoyl)benzo[b]thiophen-5-yl)difluoromethyl)phosphonic acid]
Ki [1]: 1000 to 10000 nM | Ki [2]: 1000 to 10000 nM

CC(C)(C)[C@H](NC(=O)c1cc2cc(C(F)(F)P(=O)(O)O)ccc2s1)C(=O)N1CCC[C@H]1C(=O)Nc1ncc(Cc2ccccc2)s1 [Compound 211, ((2-(((S)-1-((S)-2-((5-benzylthiazol-2-yl)carbamoyl)pyrrolidin-1-yl)-3,3-dimethyl-1-oxobutan-2-yl)carbamoyl)benzo[b]thiophen-5-yl)difluoromethyl)phosphonic acid]
Ki [1]: 100 to 1000 nM | Ki [2]: 1000 to 10000 nM

CC(C)(C)[C@H](NC(=O)c1cc2cc(C(F)(F)P(=O)(O)O)ccc2s1)C(=O)N1CCC[C@H]1C(=O)Nc1nc(Cc2ccccc2)cs1 [Compound 212, ((2-(((S)-1-((S)-2-((4-benzylthiazol-2-yl)carbamoyl)pyrrolidin-1-yl)-3,3-dimethyl-1-oxobutan-2-yl)carbamoyl)benzo[b]thiophen-5-yl)difluoromethyl)phosphonic acid]
Ki [1]: 1000 to 10000 nM | Ki [2]: 1000 to 10000 nM

CC(C)(C)[C@H](NC(=O)c1cc2cc(C(F)(F)P(=O)(O)O)ccc2s1)C(=O)N1CCC[C@H]1C(=O)Nc1nc2ccccc2s1 [Compound 213, ((2-(((S)-1-((S)-2-(benzo[d]thiazol-2-ylcarbamoyl)pyrrolidin-1-yl)-3,3-dimethyl-1-oxobutan-2-yl)carbamoyl)benzo[b]thiophen-5-yl)difluoromethyl)phosphonic acid]
Ki [1]: 1000 to 10000 nM | Ki [2]: > 10000 nM

CC(C)(C)[C@H](NC(=O)c1cc2cc(C(F)(F)P(=O)(O)O)ccc2s1)C(=O)N1CCC[C@H]1C(=O)N[C@H]1CCc2ccccc2C1 [Compound 214, ((2-(((S)-3,3-dimethyl-1-oxo-1-((S)-2-(((S)-1,2,3,4-tetrahydronaphthalen-2-yl)carbamoyl)pyrrolidin-1-yl)butan-2-yl)carbamoyl)benzo[b]thiophen-5-yl)difluoromethyl)phosphonic acid]
Ki [1]: 1000 to 10000 nM | Ki [2]: > 10000 nM

CC(C)(C)[C@H](NC(=O)c1cc2cc(C(F)(F)P(=O)(O)O)ccc2s1)C(=O)N1CCC[C@H]1C(=O)N[C@@H]1CCc2ccccc2C1 [Compound 215, ((2-(((S)-3,3-dimethyl-1-oxo-1-((S)-2-(((R)-1,2,3,4-tetrahydronaphthalen-2-yl)carbamoyl)pyrrolidin-1-yl)butan-2-yl)carbamoyl)benzo[b]thiophen-5-yl)difluoromethyl)phosphonic acid]
Ki [1]: 1000 to 10000 nM | Ki [2]: > 10000 nM
